The test system of one data set is HCV Replicon 1b. In words: HCV inhibition assay, HCV replicon 1b (Clone A or ET-lunet cells; RT-PCR or luciferase reporter). Type of data set: cell-based. The conditions noted are these: Hepatitis C virus, 96 h, HCV replicon 1b; 4 days incubation; read-out: Replicon 1b potency EC90. An outline of the steps: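 Clone A (1500/well) or ET-lunet (3000/well) replicon cells treated with serially diluted compounds (0.5% DMSO, no G418) for 4 days at 37 °C. HCV RNA measured by one-step RT-PCR normalized to rRNA (ΔΔCt) or by luciferase luminescence versus DMSO controls; EC50/EC90 by curve fitting.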
(Replicon systems follow genome replication, usually without infectious particles.)

The nature of data set [1]: Cell cytotoxicity assay (MTS), CC90 as reported in Table 1, cell line not stated. Type of data set: cell-based. To be noted: human, cell line not given. Summed up: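 Compounds, serially diluted from 100 μM, were incubated 8 days at 37° C with Huh7, HepG2 or BxPC3 (2×10^3 cells/well) or CEM (5×10^3 cells/well). Viability was read by MTS, 2 h, absorbance 490 nm. CC90 (90% inhibition) was taken against untreated cells.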

Data set [2] relates to genotype (GT) 1a H77 replicon. In words: Replicon assay, H77 GT 1a replicon in Huh7-Lunet cells (RT-PCR). Type of data set: cell-based, HCV. The conditions noted are these: Hepatitis C virus, GT1A, Huh-7, 96 h, 4 days incubation, read-out: RT-PCR H77 1a Potency EC90. The procedure:
Cell Line and Maintenance: The genotype (GT) 1a H77 replicon (Apath LLC Brooklyn, N.Y.) was stably expressed in Huh7-Lunet cells (kindly provided by R. Bartenschlager University of Heidelberg, Heidelberg, Germany) and maintained in Dulbecco's modified Eagle's medium supplemented with 10% fetal bovine serum, 0.1 mM non essential amino acids (NEAA), 4 mM L-glutamine, 1 mM sodium pyruvate and 0.750 mg/mL G418 (Geneticin) (Invitrogen, Carlsbad, Calif.).
Replicon Assay: Inhibition of HCV in the H77 GT 1a replicon (Apath LLC, Brooklyn, N.Y.) was measured by Real-Time PCR (RT-PCR) Replicon cells were added to the plate at 1500 cells/well in 50 μL of medium and 50 μL of 2× drug dilutions were added (in duplicate) per well in a 96 well plate to total 100 μL per well. The plate was incubated at 37° C. in a humidified 8% CO2 atmosphere for 4 days. After incubation, the supernatant was discarded and total RNA was extracted with RNeasy 96 (Qiagen, Valencia Calif.) per manufacturer's instructions. The extracted RNA was amplified as described by Stuyver et al., J. Virol. (2003) 77: 10689-10694, and the ΔCt values for HCV were determined and the EC90 was calculated using GraphPad Prism software (San Diego, Calif.). A “no drug” (medium only) control was used to determine maximum amount of HCV RNA.

The values below come from patent US20120202794A1 (priority 2011, published 2012).

One may read the EC90 as the concentration at which the effect reaches the 90% level. As to `CC(C)C[C@H]1C(=O)N[C@@H](c2ccccc2F)CN1C(=O)c1cc(-c2ccc(F)cc2)on1` [Compound 355, (3S,6S)-6-(2-fluorophenyl)-4-(5-(4-fluorophenyl)isoxazole-3-carbonyl)-3-isobutyl-piperazin-2-one], the EC90 with HCV Replicon 1b was determined as 0.093 µM; in data set [2], 0.16 µM. Moreover, the CC90 at 8 days in data set [1] (MTS assay, 8 days incubation) is greater than 10 µM.
In the case of `CC(C)C[C@H]1C(=O)N[C@@H](c2cccs2)CN1C(=O)[C@@H]1C[C@H]1c1ccc(F)cc1` [Compound 433, (3S,6R)-4-((1R,2R)-2-(4-fluorophenyl)cyclopropanecarbonyl)-3-isobutyl-6-(thiophen-2-yl)piperazin-2-one], the EC90 with HCV Replicon 1b is 0.018 µM; in data set [2] it was 0.03 µM. In data set [1] (MTS assay, 8 days incubation), this molecule showed a CC90 at 8 days greater than 10 µM.
Take `CC(C)C[C@H]1C(=O)N[C@@H](c2ccccc2F)CN1C(=O)c1noc(-c2ccc(F)cc2)n1` [Compound 370, (3S,6S)-6-(2-fluorophenyl)-4-(5-(4-fluorophenyl)-1,2,4-oxadiazole-3-carbonyl)-3-isobutylpiperazin-2-one]: the values for the EC90 (in the data set with HCV Replicon 1b; in data set [2]) were 0.061 µM and 0.099 µM, respectively. The CC90 at 8 days in data set [1] (MTS assay, 8 days incubation) was greater than 10 µM.
Regarding `CC(C)C[C@H]1C(=O)N[C@@H](c2ccsc2Cl)CN1C(=O)c1cc(-c2ccc(F)cc2)on1` [Compound 496, (3S,6S)-6-(2-chlorothiophen-3-yl)-4-(5-(4-fluorophenyl)isoxazole-3-carbonyl)-3-isobutylpiperazin-2-one], the EC90 in the data set on HCV Replicon 1b turned out to be 0.011 µM; in data set [2], 0.065 µM. In data set [1] (MTS assay, 8 days incubation), the CC90 at 8 days was greater than 10 µM.
The corresponding values for `C/C=C/[C@H]1CN(C(=O)c2cc(-c3ccc(F)cc3)on2)[C@@H](CC(C)C)C(=O)N1` [Compound 424, (3S,6S)-4-(5-(4-fluorophenyl)isoxazole-3-carbonyl)-3-isobutyl-6-((E)-prop-1-en-1-yl)piperazin-2-one] are 0.064 µM, 0.082 µM and greater than 10 µM.
As for `CC(C)C[C@H]1C(=O)N[C@@H](c2ccsc2Cl)CN1C(=O)c1noc(-c2ccc(F)cc2)n1` [Compound 499, (3S,6S)-6-(2-chlorothiophen-3-yl)-4-(5-(4-fluorophenyl)-1,2,4-oxadiazole-3-carbonyl)-3-isobutylpiperazin-2-one], the EC90 in the data set with HCV Replicon 1b is 0.023 µM; in data set [2], 0.083 µM. The CC90 at 8 days in data set [1] (MTS assay, 8 days incubation) was greater than 10 µM.
Regarding `CC(C)C[C@H]1C(=O)N[C@@H](c2ccccc2)CN1C(=O)[C@@H]1C[C@H]1c1ccc(Br)cc1` [Compound 333, (3S,6S)-4-[(1R,2R)-2-(4-bromo-phenyl)-cyclopropanecarbonyl]-3-isobutyl-6-phenyl-piperazin-2-one], in the data set on HCV Replicon 1b, the EC90 is 0.646 µM. The same molecule came in with a CC90 at 8 days in data set [1] (MTS assay, 8 days incubation) greater than 10 µM.
Take `CC(C)C[C@H]1C(=O)N[C@@H](C(C)C)CN1C(=O)[C@@H]1C[C@H]1c1ccc(C(C)(C)C)cc1` [Compound 311, (3S,6S)-4-((1R,2R)-2-(4-(tert-butyl)phenyl)cyclopropanecarbonyl)-3-isobutyl-6-isopropylpiperazin-2-one]: the EC90 in the data set on HCV Replicon 1b amounted to 1.86 µM. The molecule further showed a CC90 at 8 days in data set [1] (MTS assay, 8 days incubation) greater than 10 µM.
The corresponding values for `O=C1N[C@@H](c2ccccc2)CN(C(=O)c2cc(-c3ccc(F)cc3)on2)[C@H]1c1cccs1` [Compound 471, (3R,6S)-4-(5-(4-fluorophenyl)isoxazole-3-carbonyl)-6-phenyl-3-(thiophen-2-yl)piperazin-2-one] are 0.57 µM and greater than 10 µM.
Take `CC(C)C[C@H]1C(=O)N[C@@H](C2CCCC2)CN1C(=O)[C@@H]1C[C@H]1c1ccc(F)cc1` [Compound 242, (3S,6S)-6-Cyclopentyl-4-[(1R,2R)-2-(4-fluoro-phenyl)-cyclopropanecarbonyl]-3-isobutyl-piperazin-2-one]: the EC90 in the data set with HCV Replicon 1b was 0.06 µM. This molecule registered a CC90 at 8 days in data set [1] greater than 10 µM.
Take `CC(C)CC1CNC(=O)[C@H](CC(C)C)N(C(=O)c2cc(-c3ccc(F)cc3)on2)C1` (stereo partly drawn) [Compound 413, (3S)-4-(5-(4-fluorophenyl)isoxazole-3-carbonyl)-3,6-diisobutyl-1,4-diazepan-2-one]: the EC90 with HCV Replicon 1b was greater than 10 µM. In data set [1] (MTS assay, 8 days incubation), the CC90 at 8 days was greater than 10 µM.
Take `CC(C)C[C@H]1C(=O)N[C@@H](c2ncco2)CN1C(=O)c1cc(-c2ccc(F)cc2)on1` [Compound 510, (3S,6R)-4-(5-(4-fluorophenyl)isoxazole-3-carbonyl)-3-isobutyl-6-(oxazol-2-yl)piperazin-2-one]: in the data set on HCV Replicon 1b, the EC90 was greater than 10 µM. In addition, in data set [1] (MTS assay, 8 days incubation), the CC90 at 8 days was greater than 10 µM.
For `C=C[C@H]1CN(C(=O)c2cc(-c3ccc(F)cc3)on2)[C@@H](CC(C)C)C(=O)N1` [Compound 506, (3S,6S)-4-(5-(4-fluorophenyl)isoxazole-3-carbonyl)-3-isobutyl-6-vinylpiperazin-2-one], the concentration for an effect of 90% (EC90) in the data set on HCV Replicon 1b amounted to 1.05 µM. The same molecule came in with a CC90 at 8 days in data set [1] (MTS assay, 8 days incubation) greater than 10 µM.
For the molecule `CC(C)C[C@H]1CN(C(=O)c2cn(-c3ccc(Cl)cc3)nn2)[C@@H](CC(C)C)C(=O)N1` [Compound 350, (3S,6S)-4-(1-(4-chlorophenyl)-1H-1,2,3-triazole-4-carbonyl)-3,6-diisobutylpiperazin-2-one], in the data set on HCV Replicon 1b, the EC90 is 1.96 µM. The molecule further had a CC90 at 8 days in data set [1] (MTS assay, 8 days incubation) greater than 10 µM.
Regarding `CC(C)C[C@H]1C(=O)N[C@@H](c2ccccc2F)CN1C(=O)c1cc(-c2ccc(F)cc2)no1` [Compound 372, (3S,6S)-6-(2-fluorophenyl)-4-(3-(4-fluorophenyl)isoxazole-5-carbonyl)-3-isobutylpiperazin-2-one], the EC90 in the data set on HCV Replicon 1b was 0.7 µM. In data set [1] (MTS assay, 8 days incubation), this molecule registered a CC90 at 8 days greater than 10 µM.
On to `CCC[C@H]1CN(C(=O)[C@@H]2C[C@H]2c2ccc(F)cc2)[C@@H](CC(C)C)C(=O)N1` [Compound 240, (3S,6S)-4-[(1R,2R)-2-(4-Fluoro-phenyl)-cyclopropanecarbonyl]-3-isobutyl-6-propyl-piperazin-2-one], for which the EC90 with HCV Replicon 1b came to 0.1 µM. In data set [1], this molecule returned a CC90 at 8 days greater than 10 µM.
As to `CC(C)C[C@H]1C(=O)N[C@@H](c2ccccc2Cl)CN1C(=O)[C@@H]1C[C@H]1c1ccccc1` [Compound 354, (3S,6S)-6-(2-chlorophenyl)-3-isobutyl-4-((1R,2R)-2-phenylcyclopropanecarbonyl)-piperazin-2-one], the concentration for an effect of 90% (EC90) in the data set on HCV Replicon 1b was 1.85 µM. Further, the CC90 at 8 days in data set [1] (MTS assay, 8 days incubation) is greater than 10 µM.
For the molecule `CC(C)C[C@H]1C(=O)N[C@@H](C2CC2)CN1C(=O)[C@@H]1C[C@H]1c1ccccc1` [Compound 235, (3S,6S)-6-cyclopropyl-3-isobutyl-4-((1R,2R)-2-phenylcyclopropanecarbonyl)-piperazin-2-one], the EC90 in the data set on HCV Replicon 1b was found to be 4.2 µM. In addition, the CC90 at 8 days in data set [1] was greater than 10 µM.
Turning to `CC(C)C[C@H]1C(=O)N[C@@H](C2CCC2)CN1C(=O)c1cc(-c2ccc(F)cc2)on1` [Compound 443, (3S,6S)-6-cyclobutyl-4-(5-(4-fluorophenyl)isoxazole-3-carbonyl)-3-isobutylpiperazin-2-one], in the data set with HCV Replicon 1b, the EC90 was 0.74 µM. Further, in data set [1] (MTS assay, 8 days incubation), the CC90 at 8 days was greater than 10 µM.
With `CC(C)C[C@H]1C(=O)N[C@@H](C2CCCCC2)CN1C(=O)[C@@H]1C[C@H]1c1ccc(F)cc1F` [Compound 326, (3S,6S)-6-cyclohexyl-4-((1R,2R)-2-(2,4-difluorophenyl)cyclopropanecarbonyl)-3-isobutylpiperazin-2-one], the EC90 in the data set on HCV Replicon 1b was greater than 10 µM. For the same molecule, the CC90 at 8 days in data set [1] (MTS assay, 8 days incubation) was greater than 10 µM.
As for `CC(C)C[C@H]1CN(C(=O)[C@@H]2C[C@H]2c2ccc(Cl)cc2)[C@@H](CC(C)C)C(=O)N1` [Compound 237, (3S,6S)-4-[(1R,2R)-2-(4-Chloro-phenyl)-cyclopropanecarbonyl]-3,6-diisobutyl-piperazin-2-one], the EC90 in the data set on HCV Replicon 1b was found to be 0.27 µM. The molecule further had a CC90 at 8 days in data set [1] greater than 10 µM.
For the molecule `CC(C)C[C@H]1C(=O)N[C@@H](C2CCCC2)CN1C(=O)c1cc(-c2ccc(Cl)cc2)no1` [Compound 314, (3S,6S)-4-(3-(4-chlorophenyl)isoxazole-5-carbonyl)-6-cyclopentyl-3-isobutyl-piperazin-2-one], the concentration for an effect of 90% (EC90) in the data set on HCV Replicon 1b turned out to be 0.51 µM. In addition, in data set [1] (MTS assay, 8 days incubation), the CC90 at 8 days was greater than 10 µM.
The corresponding values for `O=C1N[C@@H](c2ccccc2)CN(C(=O)c2noc(-c3ccc(F)cc3)n2)[C@H]1c1cccs1` [Compound 472, (3R,6S)-4-(5-(4-fluorophenyl)-1,2,4-oxadiazole-3-carbonyl)-6-phenyl-3-(thiophen-2-yl)piperazin-2-one] are 1.2 µM and greater than 10 µM.
With `CC(C)C[C@H]1CN(C(=O)/C=C/c2ccc(Cl)c(Cl)c2)[C@@H](CC(C)C)C(=O)N1` [Compound 81], the EC90 in the data set on HCV Replicon 1b worked out at 7.31 µM. Further, the CC90 at 8 days in data set [1] was greater than 10 µM.
